# Reference: the kinase profiling compilation of Christmann-Franck et al. (2016)
# Values joined by “and” are separate entries in the source; they are usually repeats but may differ in a detail not shown here. Equal entries are not always repeated.
# Tests used:
# Test in all cases: Caliper, Mobility shift assay off-chip
# PRKCQ (human) = PRKCQ (human) (UniProt Q04759)
# IRAK1 (human) = IRAK1 (human) (UniProt P51617)
# KDR (human) = KDR (human) (UniProt P35968)
# EPHB4 (human) = EPHB4 (human) (UniProt P54760)
# Sequence of EPHB4 (human) (P54760 whole entry, looked up): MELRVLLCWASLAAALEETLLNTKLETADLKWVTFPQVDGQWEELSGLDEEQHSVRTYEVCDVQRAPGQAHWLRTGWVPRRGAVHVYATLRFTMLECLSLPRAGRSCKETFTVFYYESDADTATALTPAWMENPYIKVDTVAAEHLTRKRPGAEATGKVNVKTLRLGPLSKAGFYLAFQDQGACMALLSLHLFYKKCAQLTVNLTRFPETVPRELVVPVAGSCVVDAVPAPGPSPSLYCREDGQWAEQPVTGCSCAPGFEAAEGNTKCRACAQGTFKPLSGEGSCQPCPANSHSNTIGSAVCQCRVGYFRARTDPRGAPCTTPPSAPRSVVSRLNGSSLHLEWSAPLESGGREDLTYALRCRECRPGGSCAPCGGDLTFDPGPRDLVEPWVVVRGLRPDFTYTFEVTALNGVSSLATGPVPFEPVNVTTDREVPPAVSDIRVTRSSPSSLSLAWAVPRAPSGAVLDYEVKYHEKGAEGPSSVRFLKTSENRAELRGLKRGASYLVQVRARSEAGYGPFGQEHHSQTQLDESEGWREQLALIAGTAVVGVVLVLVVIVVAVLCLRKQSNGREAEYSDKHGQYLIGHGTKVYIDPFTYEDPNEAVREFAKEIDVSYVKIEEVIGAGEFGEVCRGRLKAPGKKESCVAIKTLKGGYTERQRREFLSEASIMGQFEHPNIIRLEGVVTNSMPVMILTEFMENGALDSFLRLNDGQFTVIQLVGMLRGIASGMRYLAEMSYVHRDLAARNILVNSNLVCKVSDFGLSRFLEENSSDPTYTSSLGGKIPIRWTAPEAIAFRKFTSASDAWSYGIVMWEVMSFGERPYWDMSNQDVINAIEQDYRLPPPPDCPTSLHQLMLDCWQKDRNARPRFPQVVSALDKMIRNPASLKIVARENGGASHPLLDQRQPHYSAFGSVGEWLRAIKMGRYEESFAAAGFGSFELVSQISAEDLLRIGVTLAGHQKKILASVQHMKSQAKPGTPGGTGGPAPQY
# CSNK2A2 (human) = CSNK2A2 (human) (UniProt P19784)
# MAPKAPK5 (human) = MAPKAPK5 (human) (UniProt Q8IW41)
# GSG2 (human) = GSG2 (human) (UniProt Q8TF76)
# MERTK (human) = MERTK (human) (UniProt Q12866)
# PLK3 (human) = PLK3 (human) (UniProt Q9H4B4)
# STK24 (human) = STK24 (human) (UniProt Q9Y6E0)
# HIPK2 (human) = HIPK2 (human) (UniProt Q9H2X6)
# PRKD1 (human) = PRKD1 (human) (UniProt Q15139)
# MAPK3 (human) = MAPK3 (human) (UniProt P27361)
# Sequence of MAPK3 (human) (P27361 whole entry, looked up): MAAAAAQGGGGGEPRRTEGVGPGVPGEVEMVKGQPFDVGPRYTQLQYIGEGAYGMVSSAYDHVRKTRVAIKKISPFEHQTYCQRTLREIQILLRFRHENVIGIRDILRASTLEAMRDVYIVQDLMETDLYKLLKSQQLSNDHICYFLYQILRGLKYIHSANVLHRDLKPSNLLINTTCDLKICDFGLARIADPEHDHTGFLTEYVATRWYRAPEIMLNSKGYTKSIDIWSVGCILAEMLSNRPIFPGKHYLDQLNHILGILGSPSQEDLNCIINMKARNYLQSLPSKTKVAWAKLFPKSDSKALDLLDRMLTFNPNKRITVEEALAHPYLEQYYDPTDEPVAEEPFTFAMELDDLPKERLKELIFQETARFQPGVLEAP
# PTK6 (human) = PTK6 (human) (UniProt Q13882)
# Sequence of PTK6 (human) (Q13882 whole entry, looked up): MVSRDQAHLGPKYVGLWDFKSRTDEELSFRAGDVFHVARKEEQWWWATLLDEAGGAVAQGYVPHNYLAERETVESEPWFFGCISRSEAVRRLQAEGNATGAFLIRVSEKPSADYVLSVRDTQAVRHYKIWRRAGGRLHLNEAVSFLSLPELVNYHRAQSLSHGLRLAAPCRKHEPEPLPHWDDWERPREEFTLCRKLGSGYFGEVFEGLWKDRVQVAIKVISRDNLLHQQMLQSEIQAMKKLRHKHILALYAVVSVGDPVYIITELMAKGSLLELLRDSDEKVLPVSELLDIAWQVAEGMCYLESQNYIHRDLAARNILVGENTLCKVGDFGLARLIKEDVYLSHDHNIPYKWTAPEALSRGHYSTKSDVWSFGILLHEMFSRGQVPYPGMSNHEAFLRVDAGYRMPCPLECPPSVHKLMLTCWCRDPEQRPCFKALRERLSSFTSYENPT
# JAK3 JH1 JH2 (human) = JAK3 JH1 JH2 (human) (UniProt P52333)
# NEK1 (human) = NEK1 (human) (UniProt Q96PY6)
# MKNK1 (human) = MKNK1 (human) (UniProt Q9BUB5)
# CAMK1D (human) = CAMK1D (human) (UniProt Q8IU85)
# Sequence of CAMK1D (human) (Q8IU85 whole entry, looked up): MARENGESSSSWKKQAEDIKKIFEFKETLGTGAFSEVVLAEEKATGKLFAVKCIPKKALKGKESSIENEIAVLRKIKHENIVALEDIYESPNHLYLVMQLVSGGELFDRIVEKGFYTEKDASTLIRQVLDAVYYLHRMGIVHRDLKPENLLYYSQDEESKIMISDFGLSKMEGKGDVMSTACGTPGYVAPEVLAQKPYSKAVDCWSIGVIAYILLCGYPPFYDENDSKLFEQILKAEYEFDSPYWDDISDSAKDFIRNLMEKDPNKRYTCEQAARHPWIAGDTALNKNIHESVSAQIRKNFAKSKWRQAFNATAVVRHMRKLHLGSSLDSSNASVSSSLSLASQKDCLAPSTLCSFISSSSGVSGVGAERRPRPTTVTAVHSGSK
# PRKCB1 (human) = PRKCB1 (human) (UniProt P05771)
# PGK1 (human) = PGK1 (human) (UniProt P00558)
# Sequence of PGK1 (human) (P00558 whole entry, looked up): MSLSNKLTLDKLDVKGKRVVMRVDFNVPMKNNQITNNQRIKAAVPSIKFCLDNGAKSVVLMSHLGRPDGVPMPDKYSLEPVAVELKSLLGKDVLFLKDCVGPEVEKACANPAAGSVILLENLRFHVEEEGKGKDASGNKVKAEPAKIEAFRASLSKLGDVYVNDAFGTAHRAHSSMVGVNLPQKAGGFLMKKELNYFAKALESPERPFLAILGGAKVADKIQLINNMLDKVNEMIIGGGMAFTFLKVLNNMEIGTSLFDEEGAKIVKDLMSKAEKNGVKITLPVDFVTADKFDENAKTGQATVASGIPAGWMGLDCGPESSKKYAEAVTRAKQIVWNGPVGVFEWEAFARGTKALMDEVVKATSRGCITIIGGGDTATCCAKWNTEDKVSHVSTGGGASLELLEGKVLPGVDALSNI
# PRKX (human) = PRKX (human) (UniProt P51817)
# ROCK1 (human) = ROCK1 (human) (UniProt Q13464)
# TEC (human) = TEC (human) (UniProt P42680)
# CDK4 (human) = CDK4 (human) (UniProt P11802)
# LATS2 (human) = LATS2 (human) (UniProt Q9NRM7)
# Sequence of LATS2 (human) (Q9NRM7 whole entry, looked up): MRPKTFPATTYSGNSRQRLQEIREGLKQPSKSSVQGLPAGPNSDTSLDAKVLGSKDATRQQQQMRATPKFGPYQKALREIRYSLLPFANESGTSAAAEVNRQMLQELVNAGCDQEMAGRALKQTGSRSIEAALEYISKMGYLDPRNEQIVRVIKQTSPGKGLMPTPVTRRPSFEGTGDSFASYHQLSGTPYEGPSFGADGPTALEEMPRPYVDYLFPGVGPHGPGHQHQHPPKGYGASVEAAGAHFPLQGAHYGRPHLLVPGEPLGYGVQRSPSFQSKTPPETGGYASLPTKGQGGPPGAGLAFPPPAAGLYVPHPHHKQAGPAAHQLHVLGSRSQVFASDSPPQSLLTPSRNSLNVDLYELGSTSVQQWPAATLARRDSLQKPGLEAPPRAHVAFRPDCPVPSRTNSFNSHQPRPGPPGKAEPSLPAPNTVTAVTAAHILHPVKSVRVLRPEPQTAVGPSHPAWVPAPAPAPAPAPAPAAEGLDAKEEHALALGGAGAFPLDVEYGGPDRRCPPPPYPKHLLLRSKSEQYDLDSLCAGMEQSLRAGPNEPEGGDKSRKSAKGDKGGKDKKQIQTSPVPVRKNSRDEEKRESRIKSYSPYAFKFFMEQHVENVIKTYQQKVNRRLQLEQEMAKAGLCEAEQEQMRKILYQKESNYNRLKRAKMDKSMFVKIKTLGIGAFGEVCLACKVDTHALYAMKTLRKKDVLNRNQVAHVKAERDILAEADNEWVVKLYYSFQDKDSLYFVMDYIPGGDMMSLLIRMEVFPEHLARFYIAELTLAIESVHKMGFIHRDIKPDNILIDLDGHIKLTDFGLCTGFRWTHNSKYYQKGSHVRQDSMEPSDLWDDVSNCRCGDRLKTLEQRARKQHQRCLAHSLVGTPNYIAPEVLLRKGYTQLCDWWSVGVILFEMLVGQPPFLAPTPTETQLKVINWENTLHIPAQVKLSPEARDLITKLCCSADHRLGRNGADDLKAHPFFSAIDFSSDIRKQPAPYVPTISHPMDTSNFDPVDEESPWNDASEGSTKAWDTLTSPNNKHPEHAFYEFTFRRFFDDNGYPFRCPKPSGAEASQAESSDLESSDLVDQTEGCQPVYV
# IRAK4 (human) = IRAK4 (human) (UniProt Q9NWZ3)
# PIM3 (human) = PIM3 (human) (UniProt Q86V86)
# CHEK1 (human) = CHEK1 (human) (UniProt O14757)
# Sequence of CHEK1 (human) (O14757 whole entry, looked up): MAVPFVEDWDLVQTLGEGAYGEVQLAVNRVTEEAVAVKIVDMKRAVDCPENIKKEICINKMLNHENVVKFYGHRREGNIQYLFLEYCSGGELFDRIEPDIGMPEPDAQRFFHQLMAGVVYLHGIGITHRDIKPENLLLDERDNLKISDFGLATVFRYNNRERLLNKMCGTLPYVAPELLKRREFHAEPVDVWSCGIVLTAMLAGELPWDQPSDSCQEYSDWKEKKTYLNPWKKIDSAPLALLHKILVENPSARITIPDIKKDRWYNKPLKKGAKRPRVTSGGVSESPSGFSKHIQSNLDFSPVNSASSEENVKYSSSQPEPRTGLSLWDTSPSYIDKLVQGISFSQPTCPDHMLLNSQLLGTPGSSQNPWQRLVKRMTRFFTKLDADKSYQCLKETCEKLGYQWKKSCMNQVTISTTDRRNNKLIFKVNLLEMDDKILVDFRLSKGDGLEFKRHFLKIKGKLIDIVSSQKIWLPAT
# NEK2 (human) = NEK2 (human) (UniProt P51955)
# NEK4 (human) = NEK4 (human) (UniProt P51957)
# CDK9 (human) = CDK9 (human) (UniProt P50750)
# FLT4 (human) = FLT4 (human) (UniProt P35916)
# MET (human) = MET (human) (UniProt P08581); conditions: compound 0.001 µM
# CHEK2 (human) = CHEK2 (human) (UniProt O96017)
# Sequence of IRAK1 (human) (P51617 whole entry, looked up): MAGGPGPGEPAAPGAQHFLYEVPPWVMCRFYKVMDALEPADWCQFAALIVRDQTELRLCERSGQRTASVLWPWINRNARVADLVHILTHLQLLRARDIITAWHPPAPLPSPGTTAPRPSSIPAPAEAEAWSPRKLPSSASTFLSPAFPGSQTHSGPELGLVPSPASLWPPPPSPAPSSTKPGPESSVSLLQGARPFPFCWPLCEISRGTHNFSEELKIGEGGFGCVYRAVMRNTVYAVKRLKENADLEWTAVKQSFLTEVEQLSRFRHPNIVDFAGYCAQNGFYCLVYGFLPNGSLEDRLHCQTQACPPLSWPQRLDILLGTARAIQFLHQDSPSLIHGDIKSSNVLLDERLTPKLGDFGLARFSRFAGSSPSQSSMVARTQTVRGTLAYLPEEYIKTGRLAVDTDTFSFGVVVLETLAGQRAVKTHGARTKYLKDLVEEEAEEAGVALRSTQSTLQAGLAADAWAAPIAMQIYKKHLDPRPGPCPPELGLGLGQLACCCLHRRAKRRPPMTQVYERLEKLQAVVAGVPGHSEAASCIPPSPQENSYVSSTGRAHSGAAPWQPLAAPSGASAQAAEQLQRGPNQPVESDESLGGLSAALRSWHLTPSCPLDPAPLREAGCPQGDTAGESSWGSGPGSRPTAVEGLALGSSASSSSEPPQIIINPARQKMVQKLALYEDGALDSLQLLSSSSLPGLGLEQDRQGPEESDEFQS
compound,measurement,setting,value
CNC(=O)c1ccccc1Sc1ccc2c(/C=C/c3ccccn3)n[nH]c2c1,inhibition,PRKCQ (human); compound 0.001 µM,9.9%
same,inhibition,PRKCQ (human); compound 0.02 µM,-1.9%
same,inhibition,IRAK1 (human); compound 0.001 µM,-12.5%
same,inhibition,IRAK1 (human); compound 0.02 µM,4.3%
same,inhibition,KDR (human); compound 0.001 µM,47.3%
same,inhibition,KDR (human); compound 0.02 µM,97.4%
same,inhibition,EPHB4 (human); compound 0.001 µM,-7.3%
same,inhibition,EPHB4 (human); compound 0.02 µM,-5.5%
same,inhibition,CSNK2A2 (human); compound 0.001 µM,-3.1%
same,inhibition,CSNK2A2 (human); compound 0.02 µM,-5.6%
same,inhibition,MAPKAPK5 (human); compound 0.001 µM,-1.5%
same,inhibition,MAPKAPK5 (human); compound 0.02 µM,1.6%
same,inhibition,GSG2 (human); compound 0.001 µM,-2.8%
same,inhibition,GSG2 (human); compound 0.02 µM,-0.9%
same,inhibition,MERTK (human); compound 0.001 µM,1%
same,inhibition,MERTK (human); compound 0.02 µM,3.9%
same,inhibition,PLK3 (human); compound 0.001 µM,3.7%
same,inhibition,PLK3 (human); compound 0.02 µM,-1.3%
same,inhibition,STK24 (human); compound 0.001 µM,2.8%
same,inhibition,STK24 (human); compound 0.02 µM,-1.1%
same,inhibition,HIPK2 (human); compound 0.001 µM,-4.6%
same,inhibition,HIPK2 (human); compound 0.02 µM,-0.1%
same,inhibition,PRKD1 (human); compound 0.001 µM,-2.7%
same,inhibition,PRKD1 (human); compound 0.02 µM,-2.2%
same,inhibition,MAPK3 (human); compound 0.001 µM,-4.1%
same,inhibition,MAPK3 (human); compound 0.02 µM,-6.1%
same,inhibition,PTK6 (human); compound 0.001 µM,-6%
same,inhibition,PTK6 (human); compound 0.02 µM,-4.8%
same,inhibition,JAK3 JH1 JH2 (human); compound 0.001 µM,4.6%
same,inhibition,NEK1 (human); compound 0.001 µM,-7.5%
same,inhibition,NEK1 (human); compound 0.02 µM,-8.1%
same,inhibition,MKNK1 (human); compound 0.001 µM,-6.1%
same,inhibition,MKNK1 (human); compound 0.02 µM,4.1%
same,inhibition,CAMK1D (human); compound 0.001 µM,-0.4%
same,inhibition,CAMK1D (human); compound 0.02 µM,-0.8%
same,inhibition,PRKCB1 (human); compound 0.001 µM,4% and 4.9%
same,inhibition,PGK1 (human); compound 0.001 µM,-3.7%
same,inhibition,PGK1 (human); compound 0.02 µM,-5.3%
same,inhibition,PRKX (human); compound 0.001 µM,0.1%
same,inhibition,PRKX (human); compound 0.02 µM,-1.7%
same,inhibition,ROCK1 (human); compound 0.001 µM,5.8%
same,inhibition,ROCK1 (human); compound 0.02 µM,0.7%
same,inhibition,TEC (human); compound 0.001 µM,3.2%
same,inhibition,TEC (human); compound 0.02 µM,-3.2%
same,inhibition,CDK4 (human); compound 0.001 µM,-2.2%
same,inhibition,CDK4 (human); compound 0.02 µM,2.9%
same,inhibition,LATS2 (human); compound 0.02 µM,-2.3%
same,inhibition,IRAK4 (human); compound 0.001 µM,-5.7%
same,inhibition,IRAK4 (human); compound 0.02 µM,-6.7%
same,inhibition,PIM3 (human); compound 0.001 µM,-7.7%
same,inhibition,PIM3 (human); compound 0.02 µM,-5.9%
same,inhibition,CHEK1 (human); compound 0.001 µM,-2%
same,inhibition,CHEK1 (human); compound 0.02 µM,0.9%
same,inhibition,NEK2 (human); compound 0.001 µM,5.7%
same,inhibition,NEK2 (human); compound 0.02 µM,4.7%
same,inhibition,NEK4 (human); compound 0.001 µM,-5.5%
same,inhibition,NEK4 (human); compound 0.02 µM,-4.4%
same,inhibition,CDK9 (human); compound 0.001 µM,-4.7%
same,inhibition,CDK9 (human); compound 0.02 µM,-6.4%
same,inhibition,FLT4 (human); compound 0.001 µM,21.2%
same,inhibition,FLT4 (human); compound 0.02 µM,86.7%
same,inhibition,MET (human),-2.4%
Cc1ccc(Nc2nccc(N(C)c3ccc4c(C)n(C)nc4c3)n2)cc1S(N)(=O)=O,inhibition,PRKCQ (human); compound 0.02 µM,1.7%
same,inhibition,PRKCQ (human); compound 0.2 µM,0.5%
same,inhibition,IRAK1 (human); compound 0.02 µM,-17.4%
same,inhibition,IRAK1 (human); compound 0.2 µM,-14.6%
same,inhibition,KDR (human); compound 0.02 µM,81.6%
same,inhibition,KDR (human); compound 0.2 µM,99.2%
same,inhibition,EPHB4 (human); compound 0.02 µM,-2.8%
same,inhibition,EPHB4 (human); compound 0.2 µM,-2.6%
same,inhibition,CSNK2A2 (human); compound 0.02 µM,-2.8%
same,inhibition,CSNK2A2 (human); compound 0.2 µM,-1.4%
same,inhibition,MAPKAPK5 (human); compound 0.02 µM,3.2%
same,inhibition,MAPKAPK5 (human); compound 0.2 µM,4.8%
same,inhibition,GSG2 (human); compound 0.02 µM,-1.1%
same,inhibition,GSG2 (human); compound 0.2 µM,4.3%
same,inhibition,MERTK (human); compound 0.02 µM,3%
same,inhibition,MERTK (human); compound 0.2 µM,15.6%
same,inhibition,PLK3 (human); compound 0.02 µM,5.4%
same,inhibition,PLK3 (human); compound 0.2 µM,5.7%
same,inhibition,STK24 (human); compound 0.02 µM,0.2%
same,inhibition,STK24 (human); compound 0.2 µM,3.4%
same,inhibition,HIPK2 (human); compound 0.02 µM,1.4%
same,inhibition,HIPK2 (human); compound 0.2 µM,3.3%
same,inhibition,PRKD1 (human); compound 0.02 µM,-1.1%
same,inhibition,PRKD1 (human); compound 0.2 µM,-0.8%
same,inhibition,MAPK3 (human); compound 0.02 µM,-5%
same,inhibition,MAPK3 (human); compound 0.2 µM,-2.7%
same,inhibition,PTK6 (human); compound 0.02 µM,2.5%
same,inhibition,PTK6 (human); compound 0.2 µM,26.2%
same,inhibition,JAK3 JH1 JH2 (human); compound 0.02 µM,4.1%
same,inhibition,JAK3 JH1 JH2 (human); compound 0.2 µM,7.7%
same,inhibition,NEK1 (human); compound 0.02 µM,-4.7%
same,inhibition,NEK1 (human); compound 0.2 µM,3.5%
same,inhibition,MKNK1 (human); compound 0.02 µM,6.1%
same,inhibition,MKNK1 (human); compound 0.2 µM,3.1%
same,inhibition,CAMK1D (human); compound 0.02 µM,-0.2%
same,inhibition,CAMK1D (human); compound 0.2 µM,2.9%
same,inhibition,PRKCB1 (human); compound 0.02 µM,3% and 5.4%
same,inhibition,PRKCB1 (human); compound 0.2 µM,0.8% and 5.1%
same,inhibition,PGK1 (human); compound 0.02 µM,-5.4%
same,inhibition,PGK1 (human); compound 0.2 µM,-2.2%
same,inhibition,PRKX (human); compound 0.02 µM,-0.6%
same,inhibition,PRKX (human); compound 0.2 µM,0.8%
same,inhibition,ROCK1 (human); compound 0.02 µM,1.7%
same,inhibition,ROCK1 (human); compound 0.2 µM,4.4%
same,inhibition,TEC (human); compound 0.02 µM,4.8%
same,inhibition,TEC (human); compound 0.2 µM,19.7%
same,inhibition,CDK4 (human); compound 0.2 µM,13.2%
same,inhibition,LATS2 (human); compound 0.02 µM,-2.1%
same,inhibition,LATS2 (human); compound 0.2 µM,-0.3%
same,inhibition,IRAK4 (human); compound 0.02 µM,-4.3%
same,inhibition,IRAK4 (human); compound 0.2 µM,-3.9%
same,inhibition,PIM3 (human); compound 0.02 µM,-3.4%
same,inhibition,PIM3 (human); compound 0.2 µM,-4.2%
same,inhibition,CHEK1 (human); compound 0.02 µM,1.8%
same,inhibition,CHEK1 (human); compound 0.2 µM,0.3%
same,inhibition,NEK2 (human); compound 0.02 µM,5.4%
same,inhibition,NEK2 (human); compound 0.2 µM,12%
same,inhibition,CHEK2 (human); compound 0.02 µM,4.1%
same,inhibition,CHEK2 (human); compound 0.2 µM,4.1%
same,inhibition,NEK4 (human); compound 0.02 µM,-3.5%
same,inhibition,NEK4 (human); compound 0.2 µM,-0.8%
same,inhibition,CDK9 (human); compound 0.02 µM,-2.5%
same,inhibition,CDK9 (human); compound 0.2 µM,5.1%
